{
  "source": "paper PMC5623949",
  "about": "“Exploiting the 2-Amino-1,3,4-thiadiazole Scaffold To Inhibit Trypanosoma brucei Pteridine Reductase in Support of Early-Stage Drug Discovery” (ACS Omega, 2017)",
  "key": {"[1]": {"target": "T1, CYP3A4 (Homo sapiens, UniProt P08684)", "T1 sequence (P08684 whole entry, canonical isoform)": "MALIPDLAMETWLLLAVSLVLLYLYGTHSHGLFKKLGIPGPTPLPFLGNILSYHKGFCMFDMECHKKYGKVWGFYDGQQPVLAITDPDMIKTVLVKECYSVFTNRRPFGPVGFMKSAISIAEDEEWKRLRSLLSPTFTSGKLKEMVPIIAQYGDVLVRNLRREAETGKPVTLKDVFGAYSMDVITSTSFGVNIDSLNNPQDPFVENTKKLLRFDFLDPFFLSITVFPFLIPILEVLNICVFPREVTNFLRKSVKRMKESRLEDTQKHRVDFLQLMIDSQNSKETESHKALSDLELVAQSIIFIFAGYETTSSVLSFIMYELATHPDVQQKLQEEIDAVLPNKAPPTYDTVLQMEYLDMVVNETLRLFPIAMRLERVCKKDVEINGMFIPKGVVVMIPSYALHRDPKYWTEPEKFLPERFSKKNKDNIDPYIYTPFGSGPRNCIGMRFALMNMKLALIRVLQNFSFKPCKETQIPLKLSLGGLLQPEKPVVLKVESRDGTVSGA", "test": "in vitro", "parameters": "cytochrome P450 isoform inhibition", "protocol": "(§1) Independent of the effect of any antiparasitic potential of compounds, they were evaluated using a panel of early-toxicity assays comprising cytotoxicity (A549, human lung adenocarcinoma epithelial cell line and WI-38, human lung fibroblasts), mitochondrial toxicity (786-O, human renal carcinoma cell line), hERG inhibition,[31] cytochrome P450 inhibition (CYP1A2, CYP2C9, CYP2C19, CYP2D6, and CYP3A4),[31] and Aurora B kinase inhibition. […] For the two compounds active against TbPTR1 (4m and 4o), IC50 against hERG, cytochrome P450, and mitochondrial toxicity were determined (reported in Supporting Information). We observed that the dose of compounds 4m, 4o, 4c, and 3k was 4 μM in the potentiation assays. […] In the case of hERG, CYP2D6, CYP2A9, CYP2C19, and mitochondrial toxicity, there is a selectivity index of around 3–4 fold, thus showing an acceptable profile."}, "[2]": {"target": "CYP2C9 (Homo sapiens, UniProt P11712)", "sequence (P11712 whole entry, canonical isoform)": "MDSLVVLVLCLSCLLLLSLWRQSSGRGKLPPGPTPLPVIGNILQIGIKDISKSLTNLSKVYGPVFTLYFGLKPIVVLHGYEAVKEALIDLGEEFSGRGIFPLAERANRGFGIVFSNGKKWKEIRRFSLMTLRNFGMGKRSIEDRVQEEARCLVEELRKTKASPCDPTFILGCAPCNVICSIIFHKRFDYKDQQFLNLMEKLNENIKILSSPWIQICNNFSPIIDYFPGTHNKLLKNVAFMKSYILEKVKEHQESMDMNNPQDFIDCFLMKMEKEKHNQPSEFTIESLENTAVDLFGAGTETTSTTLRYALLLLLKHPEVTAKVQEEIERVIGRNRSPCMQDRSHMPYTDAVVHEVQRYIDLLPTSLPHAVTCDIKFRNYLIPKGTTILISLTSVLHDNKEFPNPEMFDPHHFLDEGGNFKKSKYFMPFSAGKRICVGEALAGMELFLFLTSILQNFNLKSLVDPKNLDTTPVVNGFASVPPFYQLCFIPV", "test": "in vitro", "parameters": "cytochrome P450 isoform inhibition", "protocol": "as §1"}, "[3]": {"target": "T2, CYP1A2 (Homo sapiens, UniProt P05177)", "T2 sequence (P05177 1-516)": "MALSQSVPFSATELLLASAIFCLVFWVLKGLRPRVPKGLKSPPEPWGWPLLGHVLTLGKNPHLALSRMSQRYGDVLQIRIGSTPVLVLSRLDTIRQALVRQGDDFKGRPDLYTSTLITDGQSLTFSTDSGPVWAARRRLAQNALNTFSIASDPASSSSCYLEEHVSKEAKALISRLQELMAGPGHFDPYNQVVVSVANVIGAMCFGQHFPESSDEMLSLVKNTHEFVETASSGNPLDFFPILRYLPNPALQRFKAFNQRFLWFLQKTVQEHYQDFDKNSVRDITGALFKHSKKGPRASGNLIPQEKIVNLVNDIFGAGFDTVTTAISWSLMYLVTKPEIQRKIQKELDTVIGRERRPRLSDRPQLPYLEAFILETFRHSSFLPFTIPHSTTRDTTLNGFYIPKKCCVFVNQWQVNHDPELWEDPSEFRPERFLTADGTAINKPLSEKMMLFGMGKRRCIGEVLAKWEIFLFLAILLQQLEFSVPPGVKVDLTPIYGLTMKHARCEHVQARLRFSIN", "test": "in vitro", "parameters": "cytochrome P450 isoform inhibition", "protocol": "as §1"}, "[4]": {"target": "CYP2C19 (Homo sapiens, UniProt P33261)", "sequence (P33261 whole entry, canonical isoform)": "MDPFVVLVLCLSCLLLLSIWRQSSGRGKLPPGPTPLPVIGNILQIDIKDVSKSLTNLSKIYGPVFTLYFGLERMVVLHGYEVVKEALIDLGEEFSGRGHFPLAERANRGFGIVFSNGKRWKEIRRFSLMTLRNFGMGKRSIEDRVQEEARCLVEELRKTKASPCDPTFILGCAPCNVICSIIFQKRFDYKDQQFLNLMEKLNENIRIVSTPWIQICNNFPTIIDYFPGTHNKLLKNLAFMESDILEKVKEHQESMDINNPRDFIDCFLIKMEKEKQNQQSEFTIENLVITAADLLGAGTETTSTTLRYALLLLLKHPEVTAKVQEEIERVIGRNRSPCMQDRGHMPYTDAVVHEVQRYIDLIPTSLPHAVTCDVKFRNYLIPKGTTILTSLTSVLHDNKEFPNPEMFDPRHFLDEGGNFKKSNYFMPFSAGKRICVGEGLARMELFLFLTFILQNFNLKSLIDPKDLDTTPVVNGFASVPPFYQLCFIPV", "test": "in vitro", "parameters": "cytochrome P450 isoform inhibition", "protocol": "as §1"}, "[5]": {"target": "T3, CYP2D6 (Homo sapiens, UniProt P10635)", "T3 sequence (P10635 whole entry, canonical isoform)": "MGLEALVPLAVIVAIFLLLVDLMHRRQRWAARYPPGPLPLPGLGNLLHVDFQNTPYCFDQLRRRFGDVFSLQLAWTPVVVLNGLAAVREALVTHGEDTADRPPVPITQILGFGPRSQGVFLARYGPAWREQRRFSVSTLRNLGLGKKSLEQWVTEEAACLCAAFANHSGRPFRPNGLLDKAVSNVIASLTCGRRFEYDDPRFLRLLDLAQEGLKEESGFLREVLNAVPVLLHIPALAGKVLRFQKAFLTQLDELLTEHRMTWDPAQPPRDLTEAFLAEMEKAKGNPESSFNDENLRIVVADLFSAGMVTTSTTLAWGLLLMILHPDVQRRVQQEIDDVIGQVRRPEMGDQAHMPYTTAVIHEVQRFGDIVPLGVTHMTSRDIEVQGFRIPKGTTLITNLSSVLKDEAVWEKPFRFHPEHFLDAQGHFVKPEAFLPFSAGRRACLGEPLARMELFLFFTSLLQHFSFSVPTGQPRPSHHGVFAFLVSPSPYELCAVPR", "test": "in vitro", "parameters": "cytochrome P450 isoform inhibition", "protocol": "as §1"}, "[6]": {"tested_on": "786-O", "test": "cells", "parameters": "mitochondrial toxicity in 786-O renal carcinoma cells", "conditions": "Homo sapiens, 786-0; read-out: mitochondrial toxicity [IC50 uM]"}, "[7]": {"target": "T4, hDHFR (Homo sapiens, UniProt P00374)", "T4 construct": "gene DHFR", "T4 sequence (P00374 1-187)": "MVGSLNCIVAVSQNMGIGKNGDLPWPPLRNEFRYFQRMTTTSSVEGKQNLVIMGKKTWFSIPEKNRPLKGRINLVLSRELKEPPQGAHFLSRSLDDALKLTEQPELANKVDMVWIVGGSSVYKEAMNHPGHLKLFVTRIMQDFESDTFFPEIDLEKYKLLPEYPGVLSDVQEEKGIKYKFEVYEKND", "test": "biochemical", "parameters": "human DHFR enzyme inhibition", "method_in_brief": "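hDHFR inhibition tested at a single concentration of 100 μM, expressed as percent inhibitory activity.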"}, "[8]": {"target": "T1, CYP3A4", "test": "in vitro", "parameters": "cytochrome P450 isoform inhibition liability assay"}, "[9]": {"target": "T3, CYP2D6", "test": "in vitro", "parameters": "cytochrome P450 isoform inhibition liability assay"}},
  "data": [
    {"smiles": "Nc1nnc(NCCc2cccs2)s1", "note": "[4o, N2G(2G(thiophenG2Gyl)ethyl)G1,3,4GthiadiazoleG2,5Gdiamine]", "values": [
      {"measurement": "inhibition at 10 µM", "setting": "[1]", "value": "30.4 ± 4.5", "unit": "%"},
      {"measurement": "inhibition at 10 µM", "setting": "[2]", "value": "3.1 ± 4.8", "unit": "%"},
      {"measurement": "inhibition at 10 µM", "setting": "[3]", "value": "-2.9 ± 3.4", "unit": "%"},
      {"measurement": "inhibition at 10 µM", "setting": "[4]", "value": "-20.9 ± 6.1", "unit": "%"},
      {"measurement": "inhibition at 10 µM", "setting": "[5]", "value": "81.2 ± 1.2", "unit": "%"},
      {"measurement": "IC50", "setting": "[6]", "value": 17.8, "unit": "µM"},
      {"measurement": "inhibition at 100 µM", "setting": "[7]", "value": 24, "unit": "%"},
      {"measurement": "IC50", "setting": "[8]", "value": 34.4, "unit": "µM"},
      {"measurement": "IC50", "setting": "[9]", "value": 12.4, "unit": "µM"}
    ]},
    {"smiles": "Nc1nnc(NCc2ccc(-c3ccccc3)cc2)s1", "note": "[4m]", "values": [
      {"measurement": "inhibition at 10 µM", "setting": "[1]", "value": "25.6 ± 6.3", "unit": "%"},
      {"measurement": "inhibition at 10 µM", "setting": "[2]", "value": "46.9 ± 4.4", "unit": "%"},
      {"measurement": "inhibition at 10 µM", "setting": "[3]", "value": "60.4 ± 4.5", "unit": "%"},
      {"measurement": "inhibition at 10 µM", "setting": "[4]", "value": "22.5 ± 4.7", "unit": "%"},
      {"measurement": "inhibition at 10 µM", "setting": "[5]", "value": "53.6 ± 0.6", "unit": "%"},
      {"measurement": "IC50", "setting": "[6]", "value": "> 100", "unit": "µM"},
      {"measurement": "inhibition at 100 µM", "setting": "[7]", "value": 40, "unit": "%"},
      {"measurement": "IC50", "setting": "[8]", "value": 12.1, "unit": "µM"},
      {"measurement": "IC50", "setting": "[9]", "value": 11.5, "unit": "µM"}
    ]}
  ]
}
